Results reported in patent US5246926A, “Cephalosporin derivatives” (Beecham Group p.l.c., priority 1989, dated 1993).
In brackets after ≈: the same amount, converted by molar mass.

What was measured:
E. coli (NCTC 10418) = assay: In vitro antibacterial activity, M.I.C. against E. coli; format: cell-based; settings: Escherichia coli, NCTC10418
S. aureus (Oxford) = assay: In vitro antibacterial activity, M.I.C. against S. aureus; format: cell-based; settings: Staphylococcus aureus

Row | SMILES | MIC (E. coli (NCTC 10418)) [µg/mL] | MIC (S. aureus (Oxford)) [µg/mL]
1 | CO/N=C(\C(=O)N[C@@H]1C(=O)N2C(C(=O)O)=C(C3CCC(=O)O3)CS[C@H]12)c1csc(N)n1 (mixture of isomers) [Example 3, Sodium (6R,7R)-7-[2-(2-Aminothiazol-4-yl)-2-(Z)-methoxyiminoacetamido]-3-[(5RS)-2-oxotetrahydrofuran-5-yl]ceph-3-em-4-carboxylate] | < 0.03 | 1
2 | Nc1nc(/C(=N/O)C(=O)N[C@@H]2C(=O)N3C(C(=O)O)=C(C4CCC(=O)O4)CS[C@H]23)cs1 (mixture of isomers) [Example 5, (6R,7R)-7-[2-(2-Aminothiazol-4-yl)-2-(Z)-hydroxyiminoacetamido]-3-[(5RS)-2-oxotetrahydrofuran-5-yl)ceph-3-em-4-carboxylic acid] | < 0.03 | 0.25
3 | CO/N=C(\C(=O)N[C@@H]1C(=O)N2C(C(=O)[O-])=C(C3CCOC3=O)CS[C@H]12)c1csc(N)n1.[Na+] (mixture of isomers) [Example 15, Sodium (6R,7R)-7-[2-(2-aminothiazol-4-yl)-2-(Z)-methoxyiminoacetamido]-3-[(3RS)-2-oxotetrahydrofuran-3-yl]ceph-3-em-4-carboxylate] | 0.25 | 4
4 | CO/N=C(\C(=O)N[C@@H]1C(=O)N2C(C(=O)O)=C(C3COC(=O)C3)CS[C@H]12)c1csc(N)n1 (stereo partly shown) [Example 8] | 32 (≈ 68.5 µM) | 4 (≈ 8.56 µM)
5 | Nc1nc(/C(=N/OCC(=O)O)C(=O)N[C@@H]2C(=O)N3C(C(=O)O)=C(C4CCC(=O)O4)CS[C@H]23)cs1 (stereo partly shown) [Example 10] | 0.12 (≈ 0.235 µM) | 8 (≈ 15.6 µM)
